{
  "source": "ChEMBL document CHEMBL1129159",
  "about": "“Inhibition of protein phosphatase 2A by cyclic peptides modelled on the microcystin ring” (Bioorg Med Chem Lett, 1996)",
  "note": "Numbered stars: 1 amine (or outer) side, 2 acyl side, 3 side chain; on linkers, the order of the positions; unused ones are H or OH. Bridge positions count the residues as written; N and C are the ends. Square brackets hold non-standard residues; d marks the D form. Peptide text beside a SMILES is read from it. Adda = CO[C@@H](Cc1ccccc1)[C@@H](C)/C=C(C)/C=C/[C@H](N[*:1])[C@H](C)C(=O)[*:2]; dAsp(3S-Me) = C[C@H](C(=O)[*:3])[C@@H](N[*:1])C(=O)[*:2]; d(γGlu) = O=C(O)[C@@H](CCC(=O)[*:2])N[*:1]; NMeDha = C=C(NC)C(=O)O",
  "data": [
    {"assay": "Compound was tested for inhibition of protein phosphatase 2A (PP2A).", "units": {"IC50": "mM"}, "values": [
      {"smiles": "C[C@H](NC(=O)[C@@H](CC(=O)O)NC(=O)[C@H](C)NC(=O)[C@@H](CCC(=O)O)NC(=O)CCN)C(=O)O", "IC50": 10},
      {"smiles": "CC(C)C[C@@H]1NC(=O)[C@@H](C)NC(=O)[C@H](CC(=O)O)NC(=O)[C@@H](CCC(=O)O)NC(=O)[C@H](CS)NC(=O)[C@H](C)NC(=O)[C@@H](CC(=O)O)NC1=O", "IC50": 0.5},
      {"smiles": "CC(C)C[C@H]1NC(=O)[C@H](C)NC(=O)[C@@H](CC(=O)O)NC(=O)CCCNC(=O)[C@@H](CS)NC(=O)[C@@H](C)NC(=O)C[C@@H](C(=O)O)NC1=O", "IC50": 10},
      {"smiles": "C=C1C(=O)N[C@H](C)C(=O)N[C@@H](CC(C)C)C(=O)N[C@@H](C(=O)O)[C@H](C)C(=O)N[C@@H](CCCNC(=N)N)C(=O)N[C@@H](/C=C/C(C)=C/[C@H](C)[C@H](Cc2ccccc2)OC)[C@H](C)C(=O)N[C@@H](C(=O)O)CCC(=O)N1C", "note": "[MICROCYSTIN-LR] (R[Adda][d(γGlu)][NMeDha][dA]L[dAsp(3S-Me)]-OH; lactam N-7)", "IC50": 0.2}
    ]},
    {"assay": "Percentage inhibition of murine protein phosphatase 2A at 1 mM.", "units": {"inhibition": "%"}, "values": [
      {"smiles": "CC(C)C[C@H](NC(=O)[C@@H](C)N)C(=O)N[C@@H](CC(=O)N[C@@H](C)C(=O)N[C@@H](C)C(=O)N[C@@H](CCC(=O)N[C@@H](C)C(=O)O)C(=O)O)C(=O)O", "inhibition": 22},
      {"smiles": "CC(C)C[C@H](NC(=O)[C@@H](C)NC(=O)[C@H](C)NC(=O)[C@@H](CCC(=O)O)NC(=O)CCN)C(=O)N[C@H](CC(=O)O)C(=O)N[C@@H](C)C(=O)O", "inhibition": 16},
      {"smiles": "CC(C)C[C@H](NC(=O)[C@@H](C)N)C(=O)N[C@@H](CC(=O)N[C@@H](C)C(=O)NCCC(=O)N[C@H](CCC(=O)N[C@@H](C)C(=O)O)C(=O)O)C(=O)O", "inhibition": 12},
      {"smiles": "C[C@H](NC(=O)[C@@H](CC(=O)O)NC(=O)[C@H](C)NC(=O)[C@@H](CCC(=O)O)NC(=O)CCN)C(=O)O", "inhibition": 30},
      {"smiles": "CC(C)C[C@H](NC(=O)[C@@H](C)N)C(=O)NCCC(=O)N[C@@H](C)C(=O)N[C@H](CC(=O)O)C(=O)N[C@H](CCC(=O)O)C(=O)N[C@@H](C)C(=O)O", "inhibition": 14},
      {"smiles": "CC(C)C[C@H](NC(=O)[C@@H](C)NC(=O)[C@H](C)NC(=O)CC[C@@H](NC(=O)[C@@H](N)CS)C(=O)O)C(=O)N[C@H](CC(=O)N[C@@H](C)C(=O)O)C(=O)O", "inhibition": 19},
      {"smiles": "CC(C)C[C@H]1NC(=O)[C@H](C)NC(=O)[C@@H](C)NC(=O)CC[C@@H](C(=O)O)NC(=O)CCNC(=O)[C@@H](C)NC(=O)C[C@@H](C(=O)O)NC1=O", "inhibition": 3},
      {"smiles": "C[C@H](NC(=O)C[C@H](NC(=O)[C@H](C)NC(=O)CC[C@@H](NC(=O)CCN)C(=O)O)C(=O)O)C(=O)O", "inhibition": 19},
      {"smiles": "CC(C)C[C@@H]1NC(=O)[C@@H](C)NC(=O)[C@H](CC(=O)O)NC(=O)[C@@H](CCC(=O)O)NC(=O)[C@H](CS)NC(=O)[C@H](C)NC(=O)[C@@H](CC(=O)O)NC1=O", "inhibition": 86},
      {"smiles": "CC(C)C[C@H](NC(=O)[C@@H](C)N)C(=O)N[C@H](CC(=O)O)C(=O)N[C@@H](C)C(=O)N[C@@H](CC(=O)O)C(=O)N[C@H](CCC(=O)O)C(=O)N[C@@H](C)C(=O)O", "inhibition": 11},
      {"smiles": "CC(C)C[C@H](NC(=O)[C@@H](C)NC(=O)[C@H](C)NC(=O)[C@@H](CCC(=O)O)NC(=O)[C@@H](N)CS)C(=O)N[C@H](CC(=O)O)C(=O)N[C@@H](C)C(=O)O", "inhibition": 22},
      {"smiles": "CC(C)C[C@H](NC(=O)[C@@H](C)N)C(=O)N[C@@H](CC(=O)N[C@@H](C)C(=O)NCCC(=O)N[C@H](CCC(=O)N[C@@H](CC(=O)O)C(N)=O)C(=O)O)C(=O)O", "inhibition": 11},
      {"smiles": "CC(C)C[C@H]1NC(=O)[C@H](C)NC(=O)[C@@H](CC(=O)O)NC(=O)[C@H](CCC(=O)O)NC(=O)CCNC(=O)[C@@H](C)NC(=O)[C@H](CC(=O)O)NC1=O", "inhibition": 21},
      {"smiles": "CC(C)C[C@H](NC(=O)[C@@H](C)NC(=O)[C@H](C)NC(=O)CC[C@@H](NC(=O)CCN)C(=O)O)C(=O)N[C@H](CC(=O)N[C@@H](C)C(=O)O)C(=O)O", "inhibition": 15},
      {"smiles": "CC(C)C[C@H](NC(=O)[C@@H](C)N)C(=O)N[C@@H](CC(=O)N[C@@H](C)C(=O)N[C@@H](CC(=O)O)C(=O)N[C@H](CCC(=O)N[C@@H](C)C(=O)O)C(=O)O)C(=O)O", "inhibition": 21},
      {"smiles": "CC(C)C[C@H]1NC(=O)[C@H](C)NC(=O)[C@@H](CC(=O)O)NC(=O)CCCNC(=O)[C@@H](CS)NC(=O)[C@@H](C)NC(=O)C[C@@H](C(=O)O)NC1=O", "inhibition": 45},
      {"smiles": "CC(C)C[C@H](NC(=O)[C@@H](C)N)C(=O)NCCC(=O)N[C@@H](C)C(=O)N[C@@H](CC(=O)O)C(=O)N[C@@H](CCC(=O)N[C@@H](C)C(=O)O)C(=O)O", "inhibition": 12},
      {"smiles": "CC(C)C[C@H](NC(=O)[C@@H](C)N)C(=O)N[C@H](CC(=O)O)C(=O)N[C@@H](C)C(=O)NCCC(=O)N[C@H](CCC(=O)O)C(=O)N[C@@H](CC(=O)O)C(N)=O", "inhibition": 1},
      {"smiles": "CC(C)C[C@H]1NC(=O)[C@H](C)NC(=O)[C@@H](CC(=O)O)NC(=O)CCCNC(=O)CCNC(=O)[C@@H](C)NC(=O)C[C@@H](C(=O)O)NC1=O", "inhibition": 42},
      {"smiles": "CC(C)C[C@H](NC(=O)[C@@H](C)N)C(=O)N[C@H](CC(=O)O)C(=O)N[C@@H](C)C(=O)N[C@@H](CS)C(=O)N[C@H](CCC(=O)O)C(=O)N[C@@H](CC(=O)O)C(N)=O", "inhibition": 17},
      {"smiles": "CC(C)C[C@H](NC(=O)[C@@H](C)N)C(=O)N[C@@H](CC(=O)N[C@@H](C)C(=O)N[C@@H](CS)C(=O)N[C@H](CCC(=O)N[C@@H](CC(=O)O)C(N)=O)C(=O)O)C(=O)O", "inhibition": 18}
    ]}
  ]
}
